Laboratory results taken from patent publication US9943509B2, “Methods, compounds, and compositions for the treatment of musculoskeletal diseases” (UNIVERSITY OF SOUTHERN CALIFORNIA, priority 2013, dated 2018).
“Also recorded” adds a separate entry of the source.

Columns and labels:
Dmd^mdx mice [1] = assay: Inverted grid test of grip strength (hang time) in treadmill-exercised mice; type: in vivo, mouse
Protocol: (§1) FIG. 1: Inverted Grid Test: Mouse hang times were recorded on an inverted grid test of grip strength following 8 weeks of treadmill exercise (12-15 m/min 3 times per week) and treatment. Six different subcutaneously delivered treatment groups (n=6/group) were evaluated—wild-type (WT) C57BL/10SnJ control mice plus five groups of Dmd^mdx (C57BL/10ScSn-Dmd^mdx/J) mice: vehicle (saline/Tween 20), A(1-7) 0.5 mg/kg/day, and Compound 7 at three doses (0.5, 1.0, and 2.0 mg/kg/day).
(§2) Effect of administration of a non-peptidic small molecule Mas agonist (“Mas agonist”), Compound 7, once daily by subcutaneous injection for 10 weeks in comparison with Angiotensin (1-7), a peptide shown in the literature to improve outcomes in mdx mice.
(§3) Test Articles: (1) Compound 7 in Tween in saline (0.5, 1 or 2 mg/kg/day); (2) A(1-7) in saline (0.5 mg/kg/day)
Methods: 10 weeks old male Dmd^mdx mice were exercised at 12-15 m/min for 30 min 3 times a week for 10 weeks. The absence of dystrophin in Dmd^mdx mice produces a vastly different phenotype than dystrophin deficiency in humans does [De Luca et al., 2003]. […] In this study, 10 weeks of exercise during treatment was used. There were six different treatment groups—Wild Type plus five groups of Dmd^mdx mice: Vehicle, Compound 7 0.5 mg/kg/day, Compound 7 1 mg/kg/day, Compound 7 2.0 mg/kg/day, and 0.5 mg/kg/day Angiotensin (1-7). […]

Dmd^mdx mice [2] = assay: Weights test of forelegs grip strength (grip score); type: in vivo, mouse
Protocol: as §1, with “2: Performance” for “1: Inverted Grid Test: Mouse hang times were recorded”, “the weights” for “an inverted grid”, “test and calculation” for “test”, “grip score [Deacon, 2013] allowed a measure of forepaw grip” for “grip”, “strength was recorded” for “strength”, “9” for “8”
as §2, §3
Methods: 10 weeks old male Dmd^mdx mice were exercised at 12-15 m/min for 30 min 3 times a week for 10 weeks. […]
If the mouse is unsuccessful at lifting a particular weight for 3 seconds in all 3 attempts then the weight lower than the current weight was recorded as the last successful weight lifted by the mouse. The number of seconds (0 or 1 or 2) was recorded for the highest weight the mouse can lift. […]

Dmd^mdx mice [3] = assay: Bone marrow mesenchymal stem cell (MSC) counts by CFU-F assay after treatment; type: in vivo, mouse; settings: subcutaneous, Compound 7 0.5, 1.0 and 2.0 mg/kg/day, A(1-7) 0.5 mg/kg, 9 weeks, femur marrow cultured 8 days, vs vehicle
Protocol: (§4) FIG. 3: Six different subcutaneously delivered treatment groups (n=6/group) were evaluated—wild-type (WT) C57BL/10SnJ control mice plus five groups of Dmd^mdx (C57BL/10ScSn-Dmd^mdx/J) mice: vehicle (saline/Tween 20), A(1-7) 0.5 mg/kg/day, and Compound 7 at three doses (0.5, 1.0, and 2.0 mg/kg/day). At necropsy, following 9 weeks of treadmill exercise (12-15 m/min 3 times per week) and treatment, bone marrow was collected from both femurs, cultured 8 days, and mesenchymal stem cell (MSC) counts were recorded.
(§5) Methods: 10 weeks old male Dmd^mdx mice were exercised at 12-15 m/min for 30 min 3 times a week for 10 weeks. The absence of dystrophin in Dmd^mdx mice produces a vastly different phenotype than dystrophin deficiency in humans does [De Luca et al., 2003]. […] In this study, 10 weeks of exercise during treatment was used. There were six different treatment groups—Wild Type plus five groups of Dmd^mdx mice: Vehicle, Compound 7 0.5 mg/kg/day, Compound 7 1 mg/kg/day, Compound 7 2.0 mg/kg/day, and 0.5 mg/kg/day Angiotensin (1-7).
Necropsy: At the conclusion of the 9-week observation period (19 weeks of age), all animals were euthanized, and tissue samples and bone marrow (below) were collected. The tissues collected were the diaphragm, gastrocnemius muscle, soleus muscle, tibialis anterior muscle, plantaris muscle and heart. […]

Dmd^mdx mice [4] = assay: Histological evaluation of H&E stained diaphragm; type: in vivo, mouse; settings: subcutaneous, Compound 7 0.5, 1.0, 2.0 mg/kg/day, A(1-7) 0.5 mg/kg/day, 9 weeks, 5 random 40× fields, vs saline
Protocol: as §4, with “4: Histological evaluation:” for “3:”, “diaphragms were collected, fixed for 2 days in foramalin, paraffin embedded, sectioned,” for “bone marrow was collected from both femurs, cultured 8 days,”, “H&E stained.” for “mesenchymal stem cell (MSC) counts were recorded.”
FIG. 5: Histological evaluation: H&E stained diaphragm section, prepared as described in FIG. 4, were analyzed by for degenerating and regenerating fibers as well as inflammation. For each animal (n=6 per treatment group) 5 random 40× fields were taken across the diaphragm section and analyzed. (A) Degenerating fibers were counted as deadened fibers co-localized with an open space. […] Compound 7 across the dosage was similar to Dmd^mdx mice treated with A(1-7). (B) The number of regenerating fibers per field were counted as healthy fibers appearing with basophilic staining. […] (C) Inflammation was quantified as loci of 10 or more inflammatory cells.
as §5
Necropsy: At the conclusion of the 9-week observation period (19 weeks of age), all animals were euthanized, and tissue samples and bone marrow (below) were collected. The tissues collected were the diaphragm, gastrocnemius muscle, soleus muscle, tibialis anterior muscle, plantaris muscle and heart. The gastrocnemius muscle, soleus muscle, tibialis anterior muscle, plantaris muscle from the left leg as well as the diaphragm and heart were fixed in formalin and stored in 70% EtOH for hematoxylin and eosin (H&E) staining.
Histological Evaluation of the Diaphragm: The diaphragm was embedded in paraffin, sectioned and stained by H & E (hematoxylin and eosin). The parameters were assessed include (1) the number of regenerating fibers as defined by basophilic fibers; (2) number of degenerating fibers and the number of inflammatory loci (clusters of 10 or more inflammatory cells). Five random 40× fields per diaphragm were evaluated.

[5] = tested on: Dmd^mdx and Sgcd−/− mouse models of muscular dystrophy; settings: Dmd^mdx and Sgcd−/− mice; Acuña et al., 2014; Sabharwal et al., 2012; cited from earlier work
[6] = tested on: mice chronically infused with AngII; settings: AngII/A(1-7) co-treatment vs AngII infusion alone; Cisternas et al., 2015; cited from earlier work
[7] = tested on: cardiac fibrogenesis and remodeling; settings: Iwata et al., 2005; Grobe et al., 2007; cited from earlier work

Row | Compound | muscle strength by the inverted grid test (Dmd^mdx mice [1]; once daily subcutaneous, treadmill exercise, summary of FIG. 1) | hang time on the inverted grid test (Dmd^mdx mice [1]; subcutaneous 2.0 mg/kg/day, 8 weeks of treadmill exercise and treatment, vs vehicle treated Dmd^mdx, n=6/group, t-test) | weights test of grip strength, comparison with A(1-7) (Dmd^mdx mice [2]; Compound 7 0.5, 1 or 2 mg/kg/day vs A(1-7) 0.5 mg/kg/day) | muscle strength by the weights test of grip strength (Dmd^mdx mice [2]; once daily subcutaneous, treadmill exercise, summary of FIG. 2) | bone marrow MSC counts (Dmd^mdx mice [3]) | inflammation: loci of 10 or more inflammatory cells in diaphragm (Dmd^mdx mice [4]) | number of degenerating fibers in diaphragm (Dmd^mdx mice [4]) | number of regenerating (basophilic) fibers per field in diaphragm (Dmd^mdx mice [4]) | fibrosis [5] | measures of muscle strength [5] | oxidative stress [5] | gastrocnemius muscle fiber diameter [6] | performance on the weights test [6] | cardiac fibrogenesis and remodeling (interstitial myocardial fibrosis, myocyte hypertrophy) [7]
1 | CCCCOC(=O)NS(=O)(=O)c1ccc(OC(F)(F)F)cc1-c1ccc(Cn2ccnc2)cn1 [Compound 7, butyl ((2-(5-((1H-imidazol-1-yl)methyl)pyridin-2-yl)-4-(trifluoromethoxy)phenyl)sulfonyl)carbamate] | increased muscle strength | increase in hang time | superior to A(1-7) | increased muscle strength | increased bone marrow MSC counts | significantly increased number of regenerating fibers | reduction in the number of degenerative fibers; also recorded: reduce degenerating fibers | significantly increased number of regenerating fibers |  |  |  |  |  | 
2 | Asp-Arg-Val-Tyr-Ile-His-Pro (DRVYIHP; printed: Asp-Arg-Val-Tyr-Ile-His-Pro) [A(1-7), endogenous Mas receptor heptapeptide ligand, purchased from BACHEM] |  |  |  |  | increased bone marrow MSC counts |  | reduction in the number of degenerative fibers |  | reduced fibrosis | improved measures of muscle strength | reduced | prevented a decrease in gastrocnemius muscle fiber diameter | increased | block cardiac fibrogenesis and remodeling
